Measurements published in ChEMBL document CHEMBL1125092, “Nonneurotoxic tetralin and indan analogues of 3,4-(methylenedioxy)amphetamine (MDA)” (J Med Chem, 1990).

Experiments:
Rattus norvegicus [1] = organism: Rattus norvegicus; assay: Compounds were evaluated for binding of [3H]paroxetine to rat brain cortical homogenate and number of binding sites (Bmax) for serotonin; assay type: tissue-based
[2] = Binding affinity was determined towards serotonin uptake site in presence of [3H]paroxetine radioligand in rat brain cortical homogenate; assay type: tissue-based
[3] = Binding affinity was determined towards serotonin uptake site in presence of [3H]paroxetine radioligand in rat hippocampal homogenate; assay type: tissue-based, Hippocampus
Rattus norvegicus [4] = organism: Rattus norvegicus; assay: Compounds were evaluated for binding of [3H]paroxetine to rat hippocampal homogenate and number of binding sites (Bmax) for serotonin; assay type: tissue-based; conditions: Hippocampus
Rattus norvegicus [5] = assay: Hallucinogenic property was determined in groups of LSD trained rats and percentage of animals disrupted was reported at a dose 13.18 (umol/kg),(number of animals = 15); assay type: functional
Rattus norvegicus [6] = assay: Hallucinogenic property was determined in groups of LSD trained rats and percentage of animals disrupted was reported at a dose 17.57(umol/kg), (number of animals =21); assay type: functional
Rattus norvegicus [7] = assay: Hallucinogenic property was determined in groups of LSD trained rats and percentage of animals disrupted was reported at a dose 2.2 (umol/kg), (number of animals = 15); assay type: functional
Rattus norvegicus [8] = assay: Hallucinogenic property was determined in groups of MDMA trained rats and percentage of animals disrupted was reported at a dose 17.57(umol/kg), (number of animals =11); assay type: functional
Rattus norvegicus [9] = assay: Hallucinogenic property was determined in groups of MDMA trained rats and percentage of animals disrupted was reported at a dose 2.2 (umol/kg), (number of animals =9); assay type: functional
Rattus norvegicus [10] = assay: Hallucinogenic property was determined in groups of MDMA trained rats and percentage of animals disrupted was reported at a dose 4.39 (umol/kg),(number of animals = 9); assay type: functional
Rattus norvegicus [11] = assay: Hallucinogenic property was determined in groups of MDMA trained rats and percentage of animals disrupted was reported at a dose 8.78 (umol/kg), (number of animals = 8); assay type: functional
Rattus norvegicus [12] = assay: Hallucinogenic property was determined in groups of LSD trained rats and percentage of animals disrupted was reported at a dose 8.78 (umol/kg), (number of animals = 16); assay type: functional
Rattus norvegicus [13] = assay: Hallucinogenic property was determined in groups of LSD trained rats and percentage of animals disrupted was reported at 4.39 (umol/kg),(number of animals =11); assay type: functional
Rattus norvegicus [14] = assay: Monoamine levels in at hippocampus were evaluated after subcutaneous administration of 40 mg/kg for NE; assay type: functional
Rattus norvegicus [15] = assay: Monoamine levels in rat brain were evaluated after subcutaneous administration of 40 mg/kg for 5-HIAA; assay type: functional
Rattus norvegicus [16] = assay: Monoamine levels in rat brain were evaluated after subcutaneous administration of 40 mg/kg for 5-HT; assay type: functional
Rattus norvegicus [17] = assay: Monoamine levels in rat brain were evaluated after subcutaneous administration of 40 mg/kg for DA; assay type: functional
Rattus norvegicus [18] = assay: Monoamine levels in rat brain were evaluated after subcutaneous administration of 40 mg/kg for DOPAC; assay type: functional
Rattus norvegicus [19] = assay: Monoamine levels in rat brain were evaluated after subcutaneous administration of 40 mg/kg for HVA; assay type: functional
Rattus norvegicus [20] = assay: Monoamine levels in rat hippocampus were evaluated after subcutaneous administration of 40 mg/kg for 5-HIAA; assay type: functional
Rattus norvegicus [21] = assay: Monoamine levels in rat hippocampus were evaluated after subcutaneous administration of 40 mg/kg for 5-HT; assay type: functional
Rattus norvegicus [22] = assay: Tested for stimulus generation in rats trained to discriminate LSD from saline at a dose 2.2 (umol/kg), (number of animals = 15); assay type: functional
Rattus norvegicus [23] = assay: Tested for stimulus generation in rats trained to discriminate +/-MDMA from saline at 17.57 (umol/kg), (number of animals =11); assay type: functional
Rattus norvegicus [24] = assay: Tested for stimulus generation in rats trained to discriminate LSD from saline at a dose 4.39 (umol/kg),(number of animals =11); assay type: functional
Rattus norvegicus [25] = assay: Tested for stimulus generation in rats trained to discriminate +/-MDMA from saline at 8.78 (umol/kg), (number of animals = 8); assay type: functional
Rattus norvegicus [26] = assay: Tested for stimulus generation in rats trained to discriminate LSD from saline at a dose 8.78 (umol/kg), (number of animals = 16); assay type: functional
Rattus norvegicus [27] = assay: Tested for stimulus generation in rats trained to discriminate +/-MDMA from saline at 2.2 (umol/kg), (number of animals =9); assay type: functional
Rattus norvegicus [28] = assay: Tested for stimulus generation in rats trained to discriminate +/-MDMA from saline at 4.39 (umol/kg),(number of animals = 9); assay type: functional
Rattus norvegicus [29] = assay: Monoamine levels in rat brain were evaluated after subcutaneous administration of 40 mg/kg for NE; assay type: functional
Rattus norvegicus [30] = assay: Hallucinogenic property was determined in groups of LSD trained rats and percentage of animals disrupted was reported at a dose 1.17 (umol/kg),(number of animals = 10); assay type: functional
Rattus norvegicus [31] = assay: Hallucinogenic property was determined in groups of LSD trained rats and percentage of animals disrupted was reported at a dose 18.72 (umol/kg),(number of animals = 5); assay type: functional
Rattus norvegicus [32] = assay: Hallucinogenic property was determined in groups of LSD trained rats and percentage of animals disrupted was reported at a dose 9.36 (umol/kg),(number of animals = 10); assay type: functional
Rattus norvegicus [33] = assay: Hallucinogenic property was determined in groups of MDMA trained rats and percentage of animals disrupted was reported at 18.72 (umol/kg),(number of animals = 5); assay type: functional
Rattus norvegicus [34] = assay: Hallucinogenic property was determined in groups of MDMA trained rats and percentage of animals disrupted was reported at 28.08 (umol/kg),(number of animals = 4); assay type: functional
Rattus norvegicus [35] = assay: Hallucinogenic property was determined in groups of MDMA trained rats and percentage of animals disrupted was reported at a dose 1.17 (umol/kg), (number of animals =6); assay type: functional
Rattus norvegicus [36] = assay: Hallucinogenic property was determined in groups of MDMA trained rats and percentage of animals disrupted was reported at a dose 2.34 (umol/kg), (number of animals = 8); assay type: functional
Rattus norvegicus [37] = assay: Hallucinogenic property was determined in groups of MDMA trained rats and percentage of animals disrupted was reported at a dose 4.68 (umol/kg), (number of animals = 10); assay type: functional
Rattus norvegicus [38] = assay: Hallucinogenic property was determined in groups of MDMA trained rats and percentage of animals disrupted was reported at a dose 9.36 (umol/kg), (number of animals = 9); assay type: functional
Rattus norvegicus [39] = assay: Hallucinogenic property was determined in groups of LSD trained rats and percentage of animals disrupted was reported at a dose 4.68 (umol/kg),(number of animals = 10); assay type: functional
Rattus norvegicus [40] = assay: Hallucinogenic property was determined in groups of LSD trained rats and percentage of animals disrupted was reported at 2.34 (umol/kg),(number of animals = 13); assay type: functional
Rattus norvegicus [41] = assay: Tested for stimulus generation in rats trained to discriminate LSD from saline at a dose 1.17 (umol/kg),(number of animals = 10); assay type: functional
Rattus norvegicus [42] = assay: Tested for stimulus generation in rats trained to discriminate LSD from saline at a dose 2.34 (umol/kg),(number of animals = 13); assay type: functional
Rattus norvegicus [43] = assay: Tested for stimulus generation in rats trained to discriminate +/-MDMA from saline at 9.36 (umol/kg), (number of animals = 9); assay type: functional
Rattus norvegicus [44] = assay: Tested for stimulus generation in rats trained to discriminate LSD from saline at a dose 4.68 (umol/kg),(number of animals = 10); assay type: functional
Rattus norvegicus [45] = assay: Tested for stimulus generation in rats trained to discriminate +/-MDMA from saline at 1.17 (umol/kg), (number of animals = 6); assay type: functional
Rattus norvegicus [46] = assay: Tested for stimulus generation in rats trained to discriminate +/-MDMA from saline at 4.68 (umol/kg), (number of animals = 10); assay type: functional
Rattus norvegicus [47] = assay: Tested for disruption in more than 50% rats trained to discriminate LSD from saline at a dose 18.72 (umol/kg) (no. of animals =5); assay type: functional
Rattus norvegicus [48] = assay: Tested for stimulus generation in rats trained to discriminate LSD from saline at a dose 9.36 (umol/kg), (number of animals = 10); assay type: functional
Rattus norvegicus [49] = assay: Tested for stimulus generation in rats trained to discriminate +/-MDMA from saline at 18.72 (umol/kg),(number of animals = 5); assay type: functional
Rattus norvegicus [50] = assay: Tested for stimulus generation in rats trained to discriminate +/-MDMA from saline at 2.34 (umol/kg), (number of animals = 8); assay type: functional

With NC1CCc2cc3c(cc2C1)OCO3 (stereo not given) the Bmax (Rattus norvegicus [1]) was 964 fM/g, the Kd [2] was 0.102 nM and the Kd [3] was 0.118 nM. It also gave a Bmax (Rattus norvegicus [4]) of 778 fM/g, a D (Rattus norvegicus [5]) of 67% and a D (Rattus norvegicus [6]) of 64%. It also gave a D (Rattus norvegicus [7]) of 47%, a D (Rattus norvegicus [8]) of 27% and a D (Rattus norvegicus [9]) of 11%. For the same compound, the D (Rattus norvegicus [10]) was 11%, the D (Rattus norvegicus [11]) was 0% and the D (Rattus norvegicus [12]) was 50%. The D (Rattus norvegicus [13]) was 27%, the Monoamine level (Rattus norvegicus [14]) was 484 pg/mg and the Monoamine level (Rattus norvegicus [15]) was 370 pg/mg. It also gave a Monoamine level (Rattus norvegicus [16]) of 356 pg/mg, a Monoamine level (Rattus norvegicus [17]) of 151 pg/mg and a Monoamine level (Rattus norvegicus [18]) of 213 pg/mg. It also gave a Monoamine level (Rattus norvegicus [19]) of 262 pg/mg, a Monoamine level (Rattus norvegicus [20]) of 549 pg/mg and a Monoamine level (Rattus norvegicus [21]) of 256 pg/mg. For the same compound, the SDL (Rattus norvegicus [22]) was 25%, the SDL (Rattus norvegicus [23]) was 88% and the SDL (Rattus norvegicus [24]) was 38%. It also gave an SDL (Rattus norvegicus [25]) of 63%, an SDL (Rattus norvegicus [26]) of 63% and an SDL (Rattus norvegicus [27]) of 13%. For the same compound, the SDL (Rattus norvegicus [28]) was 50% and the Monoamine level (Rattus norvegicus [29]) was 367 pg/mg.
NC1Cc2ccc3c(c2C1)OCO3 (stereo not given) showed a D (Rattus norvegicus [30]) of 20%, a D (Rattus norvegicus [31]) of 100% and a D (Rattus norvegicus [32]) of 20%. The D (Rattus norvegicus [33]) was 0%, the D (Rattus norvegicus [34]) was 50% and the D (Rattus norvegicus [35]) was 0%. For the same compound, the D (Rattus norvegicus [36]) was 13%, the D (Rattus norvegicus [37]) was 20% and the D (Rattus norvegicus [38]) was 11%. For the same compound, the D (Rattus norvegicus [39]) was 20%, the D (Rattus norvegicus [40]) was 44% and the SDL (Rattus norvegicus [41]) was 38%. The SDL (Rattus norvegicus [42]) was 25%, the SDL (Rattus norvegicus [43]) was 25% and the SDL (Rattus norvegicus [44]) was 13%. For the same compound, the SDL (Rattus norvegicus [45]) was 0%, the SDL (Rattus norvegicus [46]) was 13% and the SDL (Rattus norvegicus [47]) was 0%. The SDL (Rattus norvegicus [48]) was 25%, the SDL (Rattus norvegicus [49]) was 0% and the SDL (Rattus norvegicus [50]) was 29%.
